Results published in patent publication US20070010489A1 (priority 2002, published 2007).
Read-outs that look alike come from different tables or passages of the source.

Experiments:
[1] = test system: mutant HIV-1 with I84V/L90M mutations; test: microbe, parasite or virus in culture; assay type: cell-based
[2] = test system: wild-type HIV-1 strain IIIB; test: microbe, parasite or virus in culture; assay type: cell-based
[3] = fold difference in EC50 mutant vs wild type, class symbols
[4] = Human immunodeficiency virus 1, IIIB

| SMILES | I84V/L90M fold change [1, 3] | EC50 [2, 4] | I84V/L90M fold change ([1]; fold change) | EC50 ([2]; read-out: EC50) |
| --- | --- | --- | --- | --- |
| CCOP(=O)(OCC)c1ccc(CN(C)CC(NC(=O)OC2COC3OCCC23)C(O)CN(CC(C)C)S(=O)(=O)c2ccc(OC)cc2)cc1 (centres unmarked) | − (≦3) | < 50 nM |  |  |
| COc1ccc(S(=O)(=O)N(CC(C)C)C[C@@H](O)[C@H](Cc2ccc(OCP(=O)(O)O)cc2)NC(=O)OC2CCOC2)cc1 (some centres unmarked) [OMe, OH] |  |  | +++ (>30) |  |
| COc1cccc(S(=O)(=O)N(CC(C)C)CC(O)C(Cc2ccccc2)NC(=O)OC2COC3OCCC23)c1 (centres unmarked) |  | < 50 nM | ++ (>10 to ≦30) |  |
| COc1ccc(S(=O)(=O)N(CC(C)C)CC(O)C(Cc2ccccc2)NC(=O)OC2COC3OCCC23)cc1OCP(=O)(OCc1ccccc1)OCc1ccccc1 (centres unmarked) |  |  | ++ (>10 to ≦30) |  |
| CC(C)CN(CC(O)C(Cc1ccccc1)NC(=O)OC1COC2OCCC12)S(=O)(=O)c1ccc(OCP(=O)(OCc2ccccc2)OCc2ccccc2)cc1 (centres unmarked) |  | 50 to 500 nM | +++ (>30) |  |
| CCOP(=O)(COc1cccc(S(=O)(=O)N(CC(C)C)CC(O)C(Cc2ccccc2)NC(=O)OC2COC3OCCC23)c1)OCC (centres unmarked) |  | < 50 nM | ++ (>10 to ≦30) |  |
| CCOC(=O)C(C)NP(=O)(Cc1ccc(NCC(NC(=O)OC2COC3OCCC23)C(O)CN(CC(C)C)S(=O)(=O)c2ccc(OC)cc2)cc1)NC(C)C(=O)OCC (centres unmarked) | − (≦3) | 50 to 500 nM |  |  |
| CCOP(=O)(OCC)c1ccc(CC(NC(=O)OC2COC3OCCC23)C(O)CN(CC(C)C)S(=O)(=O)c2ccc(OC)cc2)cc1 (centres unmarked) [drawing 1770 R1=OEt R2=OEt] | − (≦3) | < 50 nM |  |  |
| CCOP(=O)(OCC)c1ccc(CNCC(NC(=O)OC2COC3OCCC23)C(O)CN(CC(C)C)S(=O)(=O)c2ccc(OC)cc2)cc1 (centres unmarked) | ++ (>10 to ≦30) | < 50 nM |  |  |
| COc1ccc(S(=O)(=O)N(CC(C)C)CC(O)C(Cc2ccc(OCP(=O)(NC(C)C(=O)OC(C)C)Oc3ccccc3)cc2)NC(=O)OC2COC3OCCC23)cc1 (centres unmarked) [drawing 1774 R1=OPh R2=Ala-iPr] | − (≦3) |  |  |  |
| COc1ccc(S(=O)(=O)N(CCN(C)C)CC(O)C(Cc2ccc(OCc3ccccc3)cc2)NC(=O)OC2COC3OCCC23)cc1 (centres unmarked) |  | < 50 nM | − (≦3) |  |
| COc1ccc(S(=O)(=O)N(CC(C)C)C[C@@H](O)[C@H](Cc2ccc(OCP(=O)(OCc3ccccc3)OCc3ccccc3)cc2)NC(=O)OC2CCOC2)cc1 (some centres unmarked) [OMe, OBn] |  |  | ++ (>10 to ≦30) | < 50 nM |
| COc1ccc(S(=O)(=O)N(CCN(C)C)CC(O)C(Cc2ccc(O)cc2)NC(=O)OC2COC3OCCC23)cc1 (centres unmarked) |  | 50 to 500 nM | − (≦3) |  |
| COc1ccc(S(=O)(=O)N(CC(C)C)CC(O)C(Cc2ccc(OCP(=O)(OC(C)C)OC(C)C)cc2)NC(=O)OC2COC3OCCC23)cc1 (centres unmarked) [drawing 1768 R1=OiPr R2=OiPr] | − (≦3) |  |  |  |
| Cc1cccc(C)c1OCC(=O)NC(Cc1ccc(OCP(=O)(OCc2ccccc2)OCc2ccccc2)cc1)C(O)CN(CC(C)C)S(=O)(=O)c1ccc(N)cc1 (centres unmarked) |  | 50 to 500 nM | − (≦3) |  |
| CCOP(=O)(COc1ccc(S(=O)(=O)N(CC(C)C)CC(O)C(Cc2ccccc2)NC(=O)OC2COC3OCCC23)cc1)OCC (centres unmarked) |  | < 50 nM | ++ (>10 to ≦30) |  |
| COc1ccc(S(=O)(=O)N(CC(C)C)CC(O)C(Cc2ccc(CO)cc2)NC(=O)OC2COC3OCCC23)cc1 (centres unmarked) |  | < 50 nM | − (≦3) |  |
| CC(C)CN(C[C@@H](O)[C@H](Cc1ccc(OCP(=O)(Oc2ccccc2)Oc2ccccc2)cc1)NC(=O)OC1CCOC1)S(=O)(=O)c1ccc(N)cc1 (some centres unmarked) [NH2, phenol] |  |  | − (≦3) | 50 to 500 nM |
| COc1ccc(S(=O)(=O)N(CC(C)C)CC(O)C(CNc2ccc(CP(=O)(OCc3ccccc3)OCc3ccccc3)cc2)NC(=O)OC2COC3OCCC23)cc1 (centres unmarked) |  | < 50 nM |  |  |
| CC(C)CN(CC(O)C(Cc1ccccc1)NC(=O)OC1COC2OCCC12)S(=O)(=O)c1cccc(OCP(=O)(OCc2ccccc2)OCc2ccccc2)c1 (centres unmarked) |  | < 50 nM | ++ (>10 to ≦30) |  |
